Experimental data as given in patent publication US8138188B2, “Melanocortin type 4 receptor agonist piperidinoylpyrrolidines” (Pfizer Inc., priority 2006, dated 2012).

Assays:
[1] = In vitro metabolism rate determination, rat liver microsome (RLM) assay; assay type: in vitro ADME; conditions: rat liver microsomes, substrate 1 μM; read-out: RLM (intrinsic clearance)
Text: (§1) In vitro Metabolism Rate Determination (Human Liver Microsome (HLM); Rat Liver Microsome (RLM) Assay)
(§2) Many drugs are metabolised by the cytochrome P450 mono-oxygenase system. This enzyme is found in high concentrations in the liver and is bound to the endoplasmic reticulum of the hepatocyte. The enzyme system can be obtained in semi-purified state by the preparation of the hepatic microsomal fractions. Determining a compound's in vitro half-life in such a system provides a useful indicator of metabolic stability.
(§3) Methodology For In Vitro Rate Determination Using Hepatic & Supermix Microsomes
(§4) The method outlined below is for a total incubation volume of 1.5 ml.
(§5) 1. The following mixture is prepared in a test tube:
(§6) 2. Defrost microsomes at room temperature and add sufficient microsomes to give a final concentration of 0.5 nmol cytochrome P450/ml of incubation e.g. for a 1.5 ml incubation, the volume of microsomes to be added is:
(§7) [formula] 3. Add sufficient MilliQ water to give a total incubation volume of 1.425 ml. 4. Remove 237.5 μl of incubation mix and place in test tube for PNA positive control. Add 2.5 μl of PNA solution, whirlimix, and put tube into a rack in the thermostatically controlled shaking water bath 5. Remove 100 μl for no substrate control and dispense in test tube. Place test tube in a rack in the thermostatically controlled shaking water bath. 6. Add substrate to the incubation. The substrate should be at an initial concentration of 1 μM. The volume of substrate required in the remaining 1.162.5 ml incubation is calculated as follows:
(§8) [formula] • N.B. The volume of organic solvent added should not exceed 0.1% of the total incubation volume. 7. Remove 100 μl of incubation mix into test tube for no cofactor control. Whirlimix and put into a rack in the thermostatically controlled shaking water bath. 8. Pre-incubate the tube containing the incubation mix, also positive control and no cofactor tubes in the thermostatically controlled shaking water bath set at 37° C. for approx 5 min. 9. Add NADP to initiate reaction (75 μl to each 1.162.5 ml incubation mix, 12.5 μl to positive control tube and 5 μl to no substrate tube) and take first time point immediately. The PNA positive control, no cofactor control and no substrate tubes are incubated for the total incubation time. 10. Remove 100 μl aliquots up to 9 different sampling points from 0 to 60 min (usually 0, 3, 5, 10, 15, 20, 30, 45 & 60 min) and terminate reaction. Longer incubation times can be used, but, after 120 min the microsomes deteriorate. The reaction may be terminated by addition of organic solvent, acid or base. At the end of the incubation process the no cofactor and no substrate controls in a similar manner i.e. terminate with the same reagent. 11. PNA Positive Control Procedure: • After the final sample has been taken, remove the positive control and add 1 ml 20% TCA to this tube. Also prepare a tube containing 250 μl of a PNP standard at 50 μM, and add 1 ml 20% TCA. Whirlimix both tubes and leave for approx 5 min to allow the protein to precipitate. • Centrifuge both tubes for approx 5 min in an instrument set at 3500 rpm. Remove 1 ml of supernatant and place into clean test tubes, discard the remainder. • Add 1 ml 10M NaOH to the supernatant, whirlimix, and leave to stand for approx min. Blank spectrophotometer with distilled water at 400 nm then measure absorbance of the PNP standard against distilled water. The microsomal 4-nitroanisole O-demethylase activity is calculated as follows: Calculation of Results
(§9) [formula] • The activity value from the incubation MUST be equal to or greater than 85% of the mean value of the batch used for the incubation to be valid. If this criteria is not met, then the incubation must be repeated. 11. Analyse samples (including no cofactor and no substrate control) by a specific assay for the substrate to determine the disappearance kinetics. Analysis Of Data […]

MC4 receptor = MC4 receptor (Homo sapiens, UniProt P32245); assay: MC4 functional agonist potency (EC50), assay protocol E of US2005/0176772 / WO 2005/077935; assay type: cell-based; conditions: functional potency at the MC4 receptor
Description: The compounds of formula (I) of the present invention have utility as MCR4 agonists in the treatment of various disease states.
MC5 and MC4 EC50 activity was determined as described by assay protocols D and E, respectively, in US2005/0176772 (pages 28-30).

CYP3A4 = target: T1, CYP3A4 (Homo sapiens, UniProt P08684); assay: High density drug-drug interactions (DDI) 3 μM cocktail screen in human liver microsomes; assay type: in vitro ADME; conditions: 3 uM test compound, pooled human liver microsomes, probe midazolam 2 μM; read-out: % Inhibition of 3A4 metabolism at 3 uM
T1 construct: utilizes human liver microsomes together with isoform-specific clinical drug probes; from tissue; host or cells: human liver microsomes
Description: High Density Drug-Drug Interactions (DDI) 3 μM Cocktail Screen
A drug interaction is a situation in which a substance affects the activity of another drug, i.e. the effects are increased or decreased, or together they produce a new effect that neither produces on its own. Drug interactions may be the result of various processes but a relatively common one is where one drug affects the pharmacokinetics of another by inhibiting the cytochrome P450 that metabolises it. Because of the importance of these phenomena, assessment of the DDI potential for new chemical entities (NCEs) is considered important early on in the drug discovery process.
The DDI cocktail screen in human liver microsomes (HLM) is run in a fully automated fashion and the aim of the screen is to provide a single-point assessment of the DDI potential of new chemical entity (NCE; tested at 3 μM) against the 4 primary cytochrome P450 enzymes, 1A2, 2D6, 2C9 and 3A4.
The substrate cocktail approach for P450 DDI utilizes human liver microsomes together with isoform-specific clinical drug probes and permits the simultaneous measurement of the inhibition of P450 1A2, 2C9, 2D6 & 3A4 activities in a single incubation. This is run in high throughput with simultaneous detection of metabolites by LC-MS/MS. This method has been thoroughly tested and evaluated using standard compounds.
Appearance of the metabolite of each substrate is measured over time in the presence and absence of the NCE (test compound/inhibitor) at a concentration of 3 μM. The compounds are assessed for their inhibitory potential as a percentage value and interpreted using the following scheme.

[2] = In vitro metabolism rate determination, human liver microsome (HLM) assay; assay type: in vitro ADME; conditions: human liver microsomes, substrate 1 μM; read-out: HLM (intrinsic clearance)
Text: as §1, §2, §3, §4, §5, §6, §7, §8, §9

MC4 receptor (MC4R) = target: T2, MC4 receptor (MC4R) (Homo sapiens, UniProt P32245); assay: AGRP inhibition: competition binding vs [125I]AGRP(87-132) at CHO-CRE MC4R cell membranes; conditions: vs 0.3 nM [125I]AGRP(87-132)
T2 construct: expressed in transfected cells; host or cells: CHO-CRE MC4R cells (membranes)
Text: Agouti related protein (AGRP) is a high affinity endogenous antagonist/inverse agonist for the MC4 receptor (Lu et al., 1994, Nature 371: 799-802; Oilman et al., 1997, Science 278: 135-138). […] It has been ascertained that this C-terminal fragment of AGRP contains the MC4R binding determinants (Yang et al., 1999, Mol Endocrinol 13: 148-155), therefore, compounds can be evaluated for their ability to inhibit AGRP binding to membranes from cells expressing the MC4R using a competition binding assay versus [^125I]AGRP(87-132). To this end cells expressing the MC4R were subject to homogenisation and the membrane fragment isolated by differential centrifugation. CHO-CRE MC4R cell membranes (12 μg protein) were incubated with 0.3 nM [^125I]AGRP(87-132) and 11 half-log concentrations of competitor ligand, in duplicate, in a total volume of 100 μl buffer (25 mM HEPES, 1 mM MgCl2, 2.5 mM CaCl2, 0.5% BSA pH 7.0). Non-specific binding was determined by the inclusion of 1 μM SHU9119. The reaction was initiated by the addition of membranes and plates were incubated at room temperature for 2 hours. The reaction was terminated by rapid filtration onto GF/C filters (presoaked in 1% PEI) using a vacuum harvester followed by five 200 μl washes of ice cold wash buffer (Binding buffer containing 500 mM NaCl). The filters were soaked in 50 μl scintillation fluid and the amount of radioactivity present was determined by liquid scintillation counting. Ki values were determined by data analysis using appropriate software.

human MC3 receptor = target: T3, human MC3 receptor (Homo sapiens, UniProt P41968); assay: In vitro agonist potency (EC50) against melanocortin receptor type 3, cAMP in recombinant cell line; assay type: cell-based; conditions: cell line stably transfected with human MC3, 1 hour at 37° C.
T3 construct: stably transfected with full length cDNA encoding human MC1 or MC3 receptors; expressed in transfected cells; host or cells: Chinese hamster ovary cell line (MC3; 'respectively')
Description: Measurement of In Vitro Agonist Potency (EC50) of Compounds Against Melanocortin Receptors Type 1 and 3 (MC1 and MC3).
Activation of melanocortin (MC) receptors by agonists results in activation of intracellular adenylate cyclase enzymes that synthesise the second messenger signalling molecule, adenosine 3′,5′-cyclic monophosphate (cAMP). Changes in cAMP levels following treatment of recombinant MC1 and MC3 cell lines with test compound were measured and an MC1 and MC3 potency estimate (EC50) calculated as follows: […]
Human embryonic kidney (HEK) or Chinese hamster ovary cell lines stably transfected with full length cDNA encoding human MC1 or MC3 receptors, respectively, were established using standard molecular biology methods. Test compounds were dissolved in dimethyl sulfoxide (DMSO) at 4 mM. 11 point half log unit increment dilution series of test compound, typically starting at 50 uM were prepared in a buffer comprised of phosphate buffered saline (PBS), 2.5% DMSO and 0.05% pluronic F-127 surfactant. Freshly cultured cells at 80-90% confluence were harvested and re-suspended in Dulbecco's Modified Eagle's Medium (DMEM). Cells (10,000 for MC3, 20,000 for MC1) were added to the test compound dilution series in a 384 well assay plate and incubated for 1 hour at 37° C. The relative cAMP concentration in each well was then measured using a β-galactosidase enzyme fragment complementation method purchased in kit form as the Discoverx cAMP II kit from GE Healthcare/Amersham Biosciences UK. In the case of MC1,3-Isobutyl-1-methylxanthine (IBMX) at a concentration of 750 μM was included in DMEM as the cells were re-suspended for assay. […] Sigmoidal curves were fitted to plots of log10 inhibitor concentration vs percent effect using a custom made software application called SIGHTS and EC50 estimates determined by the software as the concentration of test compound giving an effect half way between the bottom and top assymptopes of the sigmoidal dose response curve. Each experiment included an EC50 determination for alpha melanocyte stimulating hormone, which was used as a standard to track assay consistency and allow fair comparison between EC50 estimates obtained in different experiments.

T1 sequence (P08684 whole entry, canonical isoform): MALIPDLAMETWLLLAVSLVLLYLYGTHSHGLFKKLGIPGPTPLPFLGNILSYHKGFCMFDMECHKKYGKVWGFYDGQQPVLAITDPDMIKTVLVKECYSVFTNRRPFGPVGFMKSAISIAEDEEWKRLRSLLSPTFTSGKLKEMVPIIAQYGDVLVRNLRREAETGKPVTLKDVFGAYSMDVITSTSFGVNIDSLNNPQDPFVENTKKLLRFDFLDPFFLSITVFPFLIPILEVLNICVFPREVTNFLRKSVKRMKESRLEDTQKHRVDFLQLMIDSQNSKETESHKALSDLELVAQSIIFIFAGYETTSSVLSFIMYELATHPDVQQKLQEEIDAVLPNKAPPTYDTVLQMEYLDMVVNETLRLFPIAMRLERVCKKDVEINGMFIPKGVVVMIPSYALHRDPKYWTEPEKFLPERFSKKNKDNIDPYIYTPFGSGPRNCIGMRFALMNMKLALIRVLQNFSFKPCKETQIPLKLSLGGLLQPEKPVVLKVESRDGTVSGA
T2 sequence (P32245 whole entry): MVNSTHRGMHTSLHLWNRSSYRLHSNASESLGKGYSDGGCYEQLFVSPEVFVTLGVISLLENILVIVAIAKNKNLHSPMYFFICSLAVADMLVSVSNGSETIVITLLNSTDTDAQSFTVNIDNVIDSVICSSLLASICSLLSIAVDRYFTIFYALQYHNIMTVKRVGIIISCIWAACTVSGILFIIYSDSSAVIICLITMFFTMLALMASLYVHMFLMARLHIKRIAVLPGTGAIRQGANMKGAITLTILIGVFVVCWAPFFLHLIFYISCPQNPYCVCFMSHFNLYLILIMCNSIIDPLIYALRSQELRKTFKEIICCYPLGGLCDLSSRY
Sequence of MC4 receptor (P32245 whole entry): as above
T3 sequence (P41968 whole entry): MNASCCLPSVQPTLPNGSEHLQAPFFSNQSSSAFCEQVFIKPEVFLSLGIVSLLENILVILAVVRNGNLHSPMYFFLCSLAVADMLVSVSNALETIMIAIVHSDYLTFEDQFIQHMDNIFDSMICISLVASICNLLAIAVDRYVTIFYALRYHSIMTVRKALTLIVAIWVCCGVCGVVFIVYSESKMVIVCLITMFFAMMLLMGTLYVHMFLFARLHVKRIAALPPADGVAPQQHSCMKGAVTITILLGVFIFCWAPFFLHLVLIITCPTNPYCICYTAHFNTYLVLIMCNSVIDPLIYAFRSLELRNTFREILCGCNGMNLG

| Structure (SMILES) | microsomal CLint at 1 μM [1] | EC50 (MC4 receptor) | inhibition at 3 μM (CYP3A4) | microsomal CLint at 1 μM [2] | Ki (MC4 receptor (MC4R)) | EC50 (human MC3 receptor) |
| --- | --- | --- | --- | --- | --- | --- |
| C[C@@H]1CN(C(=O)[C@@H]2CN(c3ccc(=O)[nH]n3)C[C@H]2c2ccc(F)cn2)C[C@H](C)[C@@]1(O)c1ccc(F)cc1 [Example 38] | < 8.5 µL/min/mg | 102 nM | 58% | < 7 µL/min/mg | 336 nM | – |
| C[C@@H]1CN(C(=O)[C@@H]2CN(c3ccc(Cl)nn3)C[C@H]2c2ccc(F)cn2)C[C@H](C)[C@@]1(O)c1ccc(F)cc1 [Example 36] | 17 µL/min/mg | 168 nM | 59% | < 7 µL/min/mg | 1020 nM | – |
| COc1ccc([C@@H]2CN(c3ccc(Cl)nn3)C[C@H]2C(=O)N2C[C@@H](C)[C@](O)(c3ccc(F)cc3)[C@@H](C)C2)nc1 [Example 44] | – | 284 nM | 27% | – | 2130 nM | > 9630 nM |
| C[C@@H]1CN(C(=O)[C@@H]2CN(c3ccc(C#N)nn3)C[C@H]2c2ccc(F)cn2)C[C@H](C)[C@@]1(O)c1ccc(F)cc1 [Example 34] | < 8.5 µL/min/mg | 39.2 nM | 50% | < 7 µL/min/mg | 375 nM | – |
| COc1ccc([C@@H]2CN(c3cccnn3)C[C@H]2C(=O)N2C[C@@H](C)[C@](O)(c3ccc(F)cc3)[C@@H](C)C2)cn1 [Example 11] | – | 111 nM | – | 14 µL/min/mg | 417 nM | – |
| C[C@@H]1CN(C(=O)[C@@H]2CN(c3ccc(C#N)nn3)C[C@H]2c2ccc(Cl)cn2)C[C@H](C)[C@@]1(O)c1ccccc1 [Example 29] | 36 µL/min/mg | 7.54 nM | 59% | 105 µL/min/mg | 40 nM | – |
| COc1ccc(C2CN(c3cncc(C#N)c3)CC2C(=O)N2CC(C)C(O)(c3ccc(F)cc3)C(C)C2)cn1 (stereo not shown) [Example 15] | – | 53.9 nM | – | – | – | > 33400 nM |
| COc1ccc([C@@H]2CN(c3ccc(C#N)cn3)C[C@H]2C(=O)N2C[C@@H](C)[C@](O)(c3ccc(F)cc3)[C@@H](C)C2)cn1 [Example 14] | < 9.75 µL/min/mg | 115 nM | – | < 9 µL/min/mg | – | 129 nM |
| COc1ccc(C2CN(c3cccnn3)CC2C(=O)N2CC(C)C(O)(c3ccccc3)C(C)C2)cn1 (stereo not shown) [Example 12] | 88.5 µL/min/mg | 91.6 nM | – | > 352 µL/min/mg | – | – |
| COc1ccc([C@@H]2CN(c3cncc(F)c3)C[C@H]2C(=O)N2C[C@@H](C)[C@](O)(c3ccc(F)cc3)[C@@H](C)C2)cn1 [Example 13] | – | 37.6 nM | 6% | – | 106 nM | 1020 nM |
